According to patent US5646249A, “Isolation and characterization of a novel chaperone protein” (The United States of America as represented by the …, priority 1994, dated 1997):

Biological target: T1, human STCH, GST-STCH fusion protein representing STCH codons 4-471 (SEQ ID NO: 2) (Homo sapiens, UniProt P48723)
T1 construct: near full-length GST-STCH fusion protein, representing STCH codons 4-471; made in house; host or cells: E. coli HB101
T1 sequence (P48723 4-471): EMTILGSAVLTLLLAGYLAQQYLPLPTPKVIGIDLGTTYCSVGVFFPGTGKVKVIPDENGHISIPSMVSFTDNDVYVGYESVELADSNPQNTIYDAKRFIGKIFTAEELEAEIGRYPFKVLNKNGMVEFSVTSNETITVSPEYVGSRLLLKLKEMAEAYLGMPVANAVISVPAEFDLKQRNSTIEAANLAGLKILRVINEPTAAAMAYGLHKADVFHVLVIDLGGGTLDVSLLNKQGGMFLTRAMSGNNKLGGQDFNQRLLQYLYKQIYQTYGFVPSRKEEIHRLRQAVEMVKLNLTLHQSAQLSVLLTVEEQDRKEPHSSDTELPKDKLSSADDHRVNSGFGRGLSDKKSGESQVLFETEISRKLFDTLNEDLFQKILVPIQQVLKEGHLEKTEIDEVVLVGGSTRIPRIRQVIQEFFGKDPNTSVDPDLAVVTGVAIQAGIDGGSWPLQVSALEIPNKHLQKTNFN
Test: ATPase assay of purified GST-STCH fusion protein
Assay type: biochemical
Settings: read-out: Km for the unstimulated STCH ATPase (ATP); unstimulated (no peptide), 37° C., recombinant GST-STCH codons 4-471
Description: Inspection of the primary amino acid sequence of the STCH product predicts a functional ATPase molecule. ATPase activity was tested using a GST -Stch plasmid that encoded a functional fusion protein including STCH codons 4-471 (See Table II and SEQ ID NO: 1). A preferred strategy for preparing this fusion protein is provided in Example III and a preferred strategy for performing ATPase assays is provided in Example VI. To exclude contaminating sources of ATPase, the GST leader peptide and the GST-STCH affinity-purified fusion proteins were eluted off glutathione--Sepharose beads, then purified by anion-exchange chromatography (mono Q) and the protein composition of the column fractions was analyzed by SDS--PAGE. The peak ATPase activity of the GST --STCH product coincided with fractions 11 and 12. While no measurable ATPase activity was detected in fractions 11 and 12 from the GST leader sequence. These fractions were pooled from the GST--STCH sample and ATPase activity was measured in the presence or absence of two different peptides. […] The Km for the unstimulated STCH ATPase was 2-3 μM ATP and the measured ATPase activity was linear with respect to time and concentration over the range tested. […]

Km: 2 to 3 µM
Compound: Nc1ncnc2c1ncn2[C@@H]1O[C@H](COP(=O)(O)OP(=O)(O)OP(=O)(O)O)[C@@H](O)[C@H]1O [ATP]
